Assay results published in patent publication US20220080056A1, “DENDRIMER COMPOSITIONS AND USE IN TREATMENT OF NECROTIZING ENTEROCOLITIS AND OTHER GASTROINTESTINAL DISORDERS” (The Johns Hopkins University, priority 2015, published 2022).

How the values were obtained:
systemic inflammation = settings: mouse models of endotoxemia and necrotizing enterocolitis; cited from earlier work
TLR4 = settings: enterocytes and macrophages in vitro; cited from earlier work
TLR4 co-receptor MD-2 = target: T1, TLR4 co-receptor MD-2 (Homo sapiens, UniProt Q9Y6Y9); settings: cited from earlier work
T1 sequence (Q9Y6Y9 19-160): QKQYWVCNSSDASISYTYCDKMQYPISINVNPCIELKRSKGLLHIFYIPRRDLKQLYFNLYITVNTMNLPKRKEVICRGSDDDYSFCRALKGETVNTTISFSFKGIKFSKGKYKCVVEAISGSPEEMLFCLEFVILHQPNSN

LPS signaling = settings: human ileum resected from infants with NEC; cited from earlier work
[1] = free drug; cited from earlier work
LPS-induced brain injury = LPS-induced brain injury in a neonatal rabbit model of cerebral palsy; assay type: in vivo
Method: The therapeutic efficacy of G4-PAMAM-S--S-NAC dendrimer conjugate was evaluated after two days of animal treatment with lipopolysaccharide (LPS) to induce white matter injury and hypomyelination in the developing rabbit brain (an animal model of Cerebral Palsy). […] This supports a conclusion that the G4-PAMAM-S--S-NAC traversed across the BBB. The targeted delivery of NAC from dendrimer complex to actived microglial cells improved the motor deficits and attenuated recovery from the LPS-induced brain injury in a neonatal rabbit model of cerebral palsy.
(§1) Treatment with G4-PAMAM-S--S-NAC dendrimer complexes reduced white matter injury and microglia activation. […] This activity of the dendrimer-NAC conjugates may be attributed to its ability to interfere with the early inflammatory responses by blocking or modifying the signal transduction factor NF-.kappa.B and nitrotyrosine, thereby modulating cellular activation. 6 and 8 arm PEG-NAC conjugates released 74% of NAC in the intracellular GSH concentration (2 and 10 mM), within 2 hours. At a concentration range of between 0.008-0.8 mM, the conjugates were nontoxic to the microglial cells. […] At the highest concentration (5 mM), the free drug reduced the H2O2 levels and nitrite levels by 30-40%, whereas the conjugates reduced the H2O2 and nitrite levels by more than 70%. […] PEGylated NAC is a dendrimer complex with utility for the pharmaceutical industry, as PEGs are approved for human use and this device addresses limitations of NAC and provides greater efficacy.

microglial cells = experiment: GSH depletion, ROS, H2O2 and NO/nitrite production; assay type: cell-based; settings: highest concentration (5 mM)
Method: as §1

[2] = system: TLR4-mediated inflammatory signaling; settings: SAR study of C34 analogs; cited from earlier work
[3] = compared to kits treated with saline

CC(=O)N[C@H]1[C@@H](OC(C)C)O[C@H](COC(C)=O)[C@@H](OC(C)=O)[C@@H]1OC(C)=O [C34]
systemic inflammation (systemic inflammation): reduces | TLR4 inhibition (TLR4): inhibits | docking fit to hydrophobic internal pocket of MD-2 (TLR4 co-receptor MD-2): tight fit | LPS signaling ex-vivo (LPS signaling): inhibited

CC(=O)N[C@@H](CS)C(=O)O [NAC, N-acetyl cysteine]
bioavailability [1]: low | plasma protein binding [1]: very high | dose eliciting identical responses (LPS-induced brain injury; LPS-induced brain injury): 100 mg/kg | fetal inflammation response (LPS-induced brain injury; [3]): decrease | motor deficits (LPS-induced brain injury; [3]): improvement | reduction of H2O2 levels (microglial cells): 30-40% | reduction of nitrite levels (microglial cells): 30-40%

CC(=O)N[C@H]1[C@@H](OC(C)C)O[C@H](CO)[C@H](O)[C@@H]1O [compound 17, isopropyl 2-acetamido-α-galactoside]
efficacy relative to C34 series [2]: more efficacious
